Measurements from ChEMBL document CHEMBL1201862, “PubChem BioAssay data set” (2004).
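Results reflect a 48-hour exposure of cells in 96-well plates to compound at five concentrations. Abbreviation: GI50, concentration required for 50% inhibition of growth.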 Active and inactive are the calls of the source. Cut-off read from the data, not from the text of the source: active = GI50 up to about 1.1 µM and inactive = higher.

Tests used:
Assay in all cases: NCI-60 cell line screen, 48 h
[1] = test system: 786-0
[2] = test system: A498
[3] = test system: A549
[4] = test system: ACHN
[5] = test system: BT-549
[6] = test system: CAKI-1
[7] = test system: CCRF-CEM
[8] = test system: COLO 205
[9] = test system: DLD-1
[10] = test system: DMS-114
[11] = test system: DMS-273
[12] = test system: DU-145
[13] = test system: EKVX
[14] = test system: HCC 2998
[15] = test system: HCT-116
[16] = test system: HCT-15
[17] = test system: HL-60
[18] = test system: HOP-18
[19] = test system: HOP-62
[20] = test system: HOP-92
[21] = test system: HT-29
[22] = test system: Hs-578T
[23] = test system: IGROV-1
[24] = test system: K562
[25] = test system: KM-20L2
[26] = test system: KM12
[27] = test system: LOX IMVI
[28] = test system: LXFL 529
[29] = test system: M14
[30] = test system: M19-MEL
[31] = test system: MCF7
[32] = test system: MDA-MB-231
[33] = test system: MDA-MB-435
[34] = test system: MDA-N
[35] = test system: MOLT-4
[36] = test system: Malme-3M
[37] = test system: NCI-H226
[38] = test system: NCI-H23
[39] = test system: NCI-H460
[40] = test system: NCI-H522
[41] = test system: NCI/ADR-RES
[42] = test system: OVCAR-3
[43] = test system: OVCAR-4
[44] = test system: OVCAR-5
[45] = test system: OVCAR-8
[46] = test system: PC-3
[47] = test system: RPMI-8226
[48] = test system: RXF 393
[49] = test system: SF-268
[50] = test system: SF-295
[51] = test system: SF-539
[52] = test system: SK-MEL-28
[53] = test system: SK-MEL-2
[54] = test system: SK-MEL-5
[55] = test system: SK-OV-3
[56] = test system: SN12C
[57] = test system: SNB-19
[58] = test system: SNB-75
[59] = test system: SNB-78
[60] = test system: SR
[61] = test system: SW-620
[62] = test system: T47D
[63] = test system: TK-10
[64] = test system: U-251
[65] = test system: UACC-257
[66] = test system: UACC-62
[67] = test system: UO-31
[68] = test system: XF498
[69] = test system: RXF 631

Measured: GI50

Nc1ccc2c(SCc3ccc([N+](=O)[O-])cc3)c3ccccc3nc2c1
13.5 µM: [16]
inactive: [1] 7.52 µM | [2] 22.5 µM | [3] 21.6 µM | [4] 5 µM | [5] 17.9 µM | [6] 13.3 µM | [7] 1.35 µM | [8] 2.28 µM | [9] 2.39 µM | [10] 15 µM | [11] 19.9 µM | [12] 13.4 µM | [13] 24.8 µM | [14] 21.5 µM | [15] 7.53 µM | [17] 1.31 µM | [18] 13.5 µM | [19] 21.8 µM | [20] 15.2 µM | [21] 17.5 µM | [22] 17.6 µM | [23] 19.5 µM | [24] 3.54 µM | [25] 16.5 µM | [26] 12.5 µM | [27] 6.84 µM | [28] 6.08 µM | [29] 11.4 µM | [30] 13.2 µM | [31] 13.6 µM | [32] 25.5 µM | [33] 14.5 µM | [34] 12.8 µM | [35] 2.3 µM | [36] 13.5 µM | [37] 18.7 µM | [38] 17 µM | [39] 21.7 µM | [40] 3.47 µM | [41] 18.2 µM | [42] 15.8 µM | [43] 14.1 µM | [44] 18.3 µM | [45] 13.2 µM | [46] 16 µM | [47] 2.7 µM | [48] 19.4 µM | [49] 15.2 µM | [50] 18.2 µM | [51] 16.4 µM | [52] 15.6 µM | [53] 16.4 µM | [54] 15.2 µM | [55] 20.5 µM | [56] 18.6 µM | [57] 21.9 µM | [58] 17.7 µM | [59] 21.9 µM | [60] 1.42 µM | [61] 2.87 µM | [62] 8.02 µM | [63] 11.9 µM | [64] 18.2 µM | [65] 16.4 µM | [66] 16.3 µM | [67] 14 µM | [68] 14.6 µM

Cc1ccc(/N=C2\N=C(N3CC(C)OC(C)C3)c3ccccc32)cc1 (configuration not stated)
25.4 µM: [16]
inactive: [1] 34.4 µM | [2] 26.6 µM | [3] 39.9 µM | [4] 28.6 µM | [6] 20.4 µM | [7] 23.3 µM | [8] 40.3 µM | [9] 41.3 µM | [11] 28.1 µM | [13] 32.6 µM | [14] 29.5 µM | [15] 20.2 µM | [19] 37.9 µM | [20] 1.41 µM | [21] 23.7 µM | [23] 27.5 µM | [24] 34 µM | [25] 27.5 µM | [26] 22 µM | [27] 28.2 µM | [28] 18.9 µM | [29] 19.3 µM | [30] 36.1 µM | [35] 20.1 µM | [36] 31.2 µM | [37] 29 µM | [38] 28.5 µM | [39] 27.2 µM | [40] > 10 µM | [42] 24.3 µM | [43] 18.1 µM | [44] 40.6 µM | [45] 33.4 µM | [47] 27.2 µM | [48] 12.6 µM | [69] 34.9 µM | [49] 25.9 µM | [50] 29.9 µM | [51] 17.9 µM | [52] 28.4 µM | [53] 24.4 µM | [54] 23.6 µM | [56] 34.5 µM | [57] 35 µM | [58] 27.9 µM | [59] 31.1 µM | [61] 33.9 µM | [63] 34.2 µM | [64] 39.4 µM | [65] 22.7 µM | [66] 29.6 µM | [67] 21.3 µM | [68] 24.3 µM

O=C(O)/C=C/C(=O)N1C/C(=C\c2ccccc2)C(=O)/C(=C/c2ccccc2)C1
6.73 µM: [16]
inactive: [1] 3.3 µM | [2] 20.1 µM | [3] 21.4 µM | [4] 8.13 µM | [6] 15.1 µM | [7] 2.36 µM | [8] 10.2 µM | [9] 3.94 µM | [10] 2.99 µM | [11] 8.53 µM | [13] 23.5 µM | [14] 6.67 µM | [15] 1.82 µM | [17] 7.96 µM | [18] 11.9 µM | [19] 23.4 µM | [20] 19.9 µM | [21] 7.76 µM | [23] 16.7 µM | [24] 2.37 µM | [25] 5.9 µM | [26] 2.55 µM | [27] 3.13 µM | [28] 1.8 µM | [29] 3.4 µM | [30] 3.21 µM | [31] 4.73 µM | [35] 2.81 µM | [36] 4.72 µM | [37] 12.4 µM | [38] 9.71 µM | [39] 14.1 µM | [40] 1.9 µM | [41] 8.65 µM | [42] 7.26 µM | [43] 7.43 µM | [44] 17.9 µM | [45] 2.7 µM | [47] 1.78 µM | [48] 5.05 µM | [49] 6.35 µM | [50] 5.01 µM | [51] 10.8 µM | [52] 6.49 µM | [53] 12.6 µM | [54] 8.95 µM | [55] 21.3 µM | [56] 6.81 µM | [57] 11.3 µM | [58] 9.84 µM | [59] 5.9 µM | [60] 3.72 µM | [61] 2.32 µM | [63] 10.3 µM | [64] 1.87 µM | [65] 7.18 µM | [66] 2.97 µM | [67] 18.2 µM | [68] 7.18 µM
